Patent publication EP3906926A1, “PROLINE HYDROXYLASE INHIBITORS FOR USE IN THE SKELETAL MUSCLE REGENERATION” (Policlinico San Donato S.p.A.- Istituto di Ricovero e Cura …, priority 2020, dated 2021)

These compounds were tested on C2C12 murine myoblasts (assay: RealTime-Glo MT Cell Viability Assay). Conditions: at EC50 concentration (250 µM), 24 hours.
Method: RealTime-Glo™ kits MT Cell Viability Assay (Promega) was used to investigate the effects of IOX2 and FG-4592 treatment on cell viability. Briefly, 5 x 10^3 C2C12 murine myoblasts were seeded in a 96 well plate and incubated for 24 hours (T0) with MT Cell Viability Substrate (1:1000 dilution) and NanoLuc® Enzyme (1:1000 dilution). Then, 50 µM IOX2 or 40 µM FG-4592 were added to the cell cultures and incubated for other 24 hours before luminescence analysis.
RealTime-Glo™ kits MT Cell Viability Assay (Promega) was used to investigate the effects of PLG treatment on cell viability. Briefly, 5 x 10^3 C2C12 murine myoblasts were seeded in a 96 well plate and incubated for 24 hours (T0) with MT Cell Viability Substrate (1:1000 dilution) and NanoLuc® Enzyme (1:1000 dilution). Then, each PLG inhibitor was added at its EC50 to the cell cultures and incubated for other 24 hours before luminescence analysis.
With COC(=O)CCC(=O)NNC(=O)c1cc2ccccc2cn1 [PLG11] the “decrease in the proliferation rate” value was 17%.
With COC(=O)CCC(=O)NNC(=O)c1cc2c(cn1)[nH]c1ccccc12 [PLG8] the “decrease in the proliferation rate” value was 60%.
In the case of O=C(O)CCC(=O)NNC(=O)c1cc2ccccc2cn1 [PLG2], the “decrease in the proliferation rate” value is reported as 20%.

Each compound was assayed on MHC (assay: qPCR of MHC during differentiation). Conditions: day 7 of differentiation, 250 µM PLG pre-treated myoblasts.
Format: cell-based, murine
Method: (§1) Total RNA was isolated using ReliaPrep™ RNA Miniprep Systems (Promega), and reverse transcribed to cDNA using the iScript cDNA synthesis kit (BioRad), according to the Manufacturer's instructions. Real-Time Quantitative PCR was performed on 10 ng of cDNA template, 0.2 µM primers, and GoTaq® qPCR Master Mix (Promega) in 20 µl final volume using a StepOnePlus® Real-Time PCR System (Applied Biosystem). […] RPL13 was used as the housekeeping gene. The amplification program consisted in an initial denaturation at 95°C for 3 minutes, followed by 40 cycles of 5 seconds each at 95°C and 30 seconds at 57°C; WNT7a was amplified at 53°C. Relative quantification of target genes was performed in triplicate and calculated by the equation 2^-ΔΔCt.
as §1, with “ReliaPrepTM” for “ReliaPrep™”, “2-ΔΔCt.” for “2^-ΔΔCt.”
For COC(=O)CCC(=O)NNC(=O)c1cc2ccccc2cn1 [PLG11], the “enhancement of MHC” value was 1.4 fold.
COC(=O)CCC(=O)NNC(=O)c1cc2c(cn1)[nH]c1ccccc12 [PLG8] was tested, and the “enhancement of MHC” value was 1.5 fold.
With O=C(O)CCC(=O)NNC(=O)c1cc2ccccc2cn1 [PLG2] the “enhancement of MHC” value was 1.3 fold.

These compounds were tested on murine myoblasts C2C12 (assay: Skeletal muscle differentiation, MHC immunofluorescence (fusion and differentiation indexes)). Conditions: 250 µM PLG 24 hours in GM, then 7 days in DM without inhibitor; vs untreated controls.
Format: cell-based
Method: (§2) The DM was changed every day for 7 days. Cells were analyzed at 24 hours post-treatment (PT), at 3rd and 7th days of skeletal muscle differentiation.
After differentiation for 7 days in DM, cells were washed with phosphate saline buffer (PBS) and fixed for 15 minutes in 4% (w/v) paraformaldehyde at room temperature. For permeabilization and blocking, cells were incubated for 1 hour in the presence of PBS 0.1% (v/v) Triton X-100 (TX-100, Merck) and 5% (w/v) FBS (Merck) at room temperature. […] After incubation, cells were washed three times in PBS and incubated for 1 hour at room temperature with an anti-mouse FITC-conjugated secondary antibody (Jackson ImmunoResearch), diluted 1:200. […] Myogenesis was assessed by measuring the myotube area and the number of myonuclei per myotube using a fluorescent microscope (Olympus TH4-200) equipped with an acquisition camera. To quantify both differentiation and fusion indexes, ten fields were chosen randomly and, for each field, a minimum of one hundred myosin-positive myotubes with more than two myonuclei were measured using the ImageJ v1.49o software. The area and the number of nuclei per myotube was the mean of ten measurements averaged from three different experiments.
as §2
With COC(=O)CCC(=O)NNC(=O)c1cc2ccccc2cn1 [PLG11] the fusion index was “no significant changes” and the “increase in the differentiation index” value was 1.2 fold.
COC(=O)CCC(=O)NNC(=O)c1cc2c(cn1)[nH]c1ccccc12 [PLG8] was tested, and the fusion index was “no significant changes” and the “increase in the differentiation index” value was 1.15 fold.
With O=C(O)CCC(=O)NNC(=O)c1cc2ccccc2cn1 [PLG2] the fusion index was “no significant changes” and the “increase in the differentiation index” value was 1.15 fold.

The compounds below were run on C2C12 murine myoblasts (assay: CellTox Cytotoxicity Assay). Conditions: at EC50 concentration (250 µM), 24 hours.
Method: To assess PHDs inhibitors cytotoxicity, 5 x 10^3 C2C12 murine myoblasts were seeded in a 96-well plate.
With COC(=O)CCC(=O)NNC(=O)c1cc2ccccc2cn1 [PLG11] the Cell toxicity was “not due to a toxic effect”.
For COC(=O)CCC(=O)NNC(=O)c1cc2c(cn1)[nH]c1ccccc12 [PLG8], the Cell toxicity was “not due to a toxic effect”.
O=C(O)CCC(=O)NNC(=O)c1cc2ccccc2cn1 [PLG2] was tested, and the Cell toxicity was “not due to a toxic effect”.

What follows are compounds tested on Myogenin (assay: qPCR of Myogenin during differentiation). Conditions: day 3 of differentiation, 250 µM PLG pre-treated myoblasts.
Format: cell-based, murine
Method: as §1
as §1, with “ReliaPrepTM” for “ReliaPrep™”, “2-ΔΔCt.” for “2^-ΔΔCt.”
For COC(=O)CCC(=O)NNC(=O)c1cc2ccccc2cn1 [PLG11], the “increase of Myogenin” value was 1.4 fold.
In the case of COC(=O)CCC(=O)NNC(=O)c1cc2c(cn1)[nH]c1ccccc12 [PLG8], the “increase of Myogenin” value is reported as 1.4 fold.
With O=C(O)CCC(=O)NNC(=O)c1cc2ccccc2cn1 [PLG2] the “increase of Myogenin” value was 1.2 fold.

What follows are compounds tested on HIF-1α (assay: Western blot of HIF-1α nuclear translocation). Conditions: PLG at EC50 (250 µM) for 24 hours, vs untreated control; Lamin A/C housekeeper.
Format: cell-based, murine
Method: (§3) For nuclei separation, 5 x 10^6 cells were collected after enzymatic digestion with trypsin (Merck), centrifuged at the maximum speed, resuspended in 400 µl of Buffer A (10 mM KCl, 0.1 mM EDTA, 1 mM DTT, 10 mM Hepes, pH 7.9), containing protease and phosphatase inhibitors cocktail (Merck), and incubated on ice for 20 minutes. Then, 10% NP40 was added to the cell suspension, mixed for 40 seconds, and centrifuged 40 seconds at the maximum speed. After centrifugation, the pellet was resuspended in 80 µl of Buffer C (0.4M NaCl, 1 mM EDTA, 1 mM DTT, 20 mM Hepes, pH 7.9), containing a protease and phosphatase inhibitors cocktail, and then mixed for 30 minutes at 4°C at the maximum speed. Finally, the nuclear suspension was centrifuged for 5 minutes at 4°C at the maximum speed, collected and transferred in a new tube. The total protein content was determined with the BCA Protein Assay Kit (Pierce), according to the manufacturer's instructions.
(§4) Proteins were denaturated by boiling for 10 minutes in sample buffer (0.6 g/100 mL Tris, 2 g/100 mL SDS, 10% glycerol, 1% 2-mercaptoethanol, pH 6.8) and loaded into 10% SDS-PAGE gel, then transferred onto a nitrocellulose membrane (Trans-blot, Bio-Rad Laboratories) by electroblotting. Nitrocellulose membranes were incubated with a blocking solution containing 5% (w/v) non-fat dry milk or 5% (w/v) BSA (Merck) in Tris-buffer saline with 0.1% Tween® 20 (TBS-T) for 1 hour. […] Membranes were washed three times for 10 minutes with TBS-T, and then incubated with the appropriate anti-mouse, anti-rabbit, or anti-goat HRP-conjugated secondary antibodies (Dako, Agilent Technologies), 1:2000 dilution, for 1 hour at room temperature. After three washes for 10 minutes with TBS-T, the immunoreactive bands were visualized using the enhanced chemiluminescence detection kit reagents (ECL Advance, GeHealthcare), according to the manufacturer's instructions.
as §3, with “For total proteins extraction, 7.5 x 10^4 cells were seeded and harvested at 7th days of skeletal muscle differentiation, as previously described. Cells were collected after enzymatic digestion with trypsin (Merck), lysed by sonication and centrifuged at 800 xg for 10 minutes. Supernatant was used to determine total protein content with the BCA Protein Assay Kit (Pierce), according to the manufacturer's instructions. For” for “For”, “(0.4 M” for “(0.4M”
With COC(=O)CCC(=O)NNC(=O)c1cc2ccccc2cn1 [PLG11] the “HIF-1α nuclear translocation, protein increase” value was 1.5 fold.
In the case of COC(=O)CCC(=O)NNC(=O)c1cc2c(cn1)[nH]c1ccccc12 [PLG8], the “HIF-1α nuclear translocation, protein increase” value is reported as 1.5 fold.
In the case of O=C(O)CCC(=O)NNC(=O)c1cc2ccccc2cn1 [PLG2], the “HIF-1α nuclear translocation, protein increase” value is reported as 1.3 fold.

Each compound was assayed on VEGF (assay: qPCR of HIF-1α target gene VEGF). Conditions: PLG at EC50 (250 µM), 24 hours.
Format: cell-based, murine
Method: as §1
as §1, with “ReliaPrepTM” for “ReliaPrep™”, “2-ΔΔCt.” for “2^-ΔΔCt.”
In the case of COC(=O)CCC(=O)NNC(=O)c1cc2ccccc2cn1 [PLG11], the “enhancement of VEGF” value is reported as 1.2 fold.
With COC(=O)CCC(=O)NNC(=O)c1cc2c(cn1)[nH]c1ccccc12 [PLG8] the “enhancement of VEGF” value was 1.6 fold.
With O=C(O)CCC(=O)NNC(=O)c1cc2ccccc2cn1 [PLG2] the “enhancement of VEGF” value was 1.1 fold.

The compounds below were run against PHDs (assay: ODD-luciferase reporter assay (Dual-Glo) for PHDs inhibition). Conditions: C2C12 myoblasts transfected with ODD-luciferase-pcDNA3; 24 hours at 50, 100, 250, 500, 1000 µM, normoxic conditions; linear regression.
Method: The IC50 was calculated using a Dual-Glo® Luciferase Assay System kit (Promega) that allows a high-throughput analysis of mammalian cells containing the Firefly (Luciferase-pcDNA3, ODD-Luciferase-pcDNA3) and Renilla (pRL-CMV) luciferase reporters. Briefly, 5 x 10^3 cells per well were seeded in a 96-well plate, and then transfected for 24 hours with a Luciferase-pcDNA3 or an ODD-Luciferase-pcDNA3 (80 ng), containing the firefly gene reporter. A co-transfection with pRL-CMV (8 ng), containing the renilla gene reporter, was performed as an internal control, according to the ViaFect Transfection Reagent® protocol (Promega). After transfection, cells were treated with 10, 25, 50, and 100 µM IOX2 or FG-4592 (R oxadustat) for 24 hours, and then an equal volume of Dual-Glo® Luciferase Reagent was added to each well, incubated at room temperature for 30 minutes, and then analyzed with a Varioskan™ LUX Multimode Microplate Reader (ThermoFisher Scientific). Then, an equal volume of Dual-Glo® Stop & Glo® Reagent was added to each well in order to quench the luminescence from the firefly reaction and to provide the substrate for the renilla luciferase. The mixture was incubated for 30 minutes before analysis. The IC50 values were calculated by linear regression.
To this purpose, the IC50 of both compounds was determined by transiently co-transfecting C2C12 myoblasts with the ODD-luciferase-pcDNA3 plasmid, containing the Oxygen Dependent Domain (ODD) of HIF-1α, and with the pRL-CMV plasmid, as the internal control (Figure 4, panel A). Then, transfected cells were treated for 24 hours with IOX2 or FG-4592 at different concentrations (10, 25, 50, and 100 µM) under normoxic conditions, and the emitted luminescence was collated to untreated controls.
The EC50 was calculated using a Dual-Glo® Luciferase Assay System kit (Promega) that allows a high-throughput analysis of mammalian cells containing the Firefly (Luciferase-pcDNA3, ODD-Luciferase-pcDNA3) and Renilla (pRL-CMV) luciferase reporters. Briefly, 5 x 10^3 cells per well were seeded in a 96-well plate, and then transfected for 24 hours with a Luciferase-pcDNA3 or an ODD-Luciferase-pcDNA3 (80 ng), containing the firefly gene reporter. A co-transfection with pRL-CMV (8 ng), containing the renilla gene reporter, was performed as an internal control, according to the ViaFect Transfection Reagent® protocol (Promega). […] Then, an equal volume of Dual-Glo® Stop & Glo® Reagent was added to each well in order to quench the luminescence from the firefly reaction and to provide the substrate for the renilla luciferase. The mixture was incubated for 30 minutes before analysis. The EC50 values were calculated by linear regression.
The EC50 of each compound was determined by transiently co-transfecting C2C12 myoblasts with the ODD-luciferase-pcDNA3 plasmid, containing the Oxygen Dependent Domain (ODD) of HIF-1α, and with the pRL-CMV plasmid, as the internal control (Figure 12, panel A).
For COC(=O)CCC(=O)NNC(=O)c1cc(N(C)C)ccn1 [PLG23], the EC50 was “undetectable”.
COC(=O)CCC(=O)NNC(=O)c1cc2ccccc2cn1 [PLG11] gave an EC50 of 250 µM.
CN(C)c1ccnc(C(=O)NNC(=O)CCC(=O)O)c1 [PLG19] was tested, and the EC50 was “undetectable”.
O=C(O)CCC(=O)NNC(=O)c1cc2c(cn1)[nH]c1ccccc12 [PLG6] was tested, and the EC50 was “undetectable”.
COC(=O)CCC(=O)NNC(=O)c1cc2c(cn1)[nH]c1ccccc12 [PLG8] was tested, and the EC50 was 250 µM.
Compound O=C(O)CCC(=O)NNC(=O)c1cc2ccccc2cn1 [PLG2] has an EC50 of 250 µM.

The compounds below were run on PHD2 (assay: qPCR of HIF-1α target gene PHD2). Conditions: PLG at EC50 (250 µM), 24 hours.
Format: cell-based, murine
Method: as §1
as §1, with “ReliaPrepTM” for “ReliaPrep™”, “2-ΔΔCt.” for “2^-ΔΔCt.”
With COC(=O)CCC(=O)NNC(=O)c1cc2ccccc2cn1 [PLG11] the “increase of PHD2” value was 1.3 fold.
COC(=O)CCC(=O)NNC(=O)c1cc2c(cn1)[nH]c1ccccc12 [PLG8] was tested, and the “increase of PHD2” value was 1.8 fold.
O=C(O)CCC(=O)NNC(=O)c1cc2ccccc2cn1 [PLG2] was tested, and the “increase of PHD2” value was “no significant changes”.

The compounds below were run on MyoD (assay: Western blot of MyoD nuclear localization). Conditions: 250 µM PLG for 24 hours.
Format: cell-based, murine
Method: as §3, §4
as §3, with “For total proteins extraction, 7.5 x 10^4 cells were seeded and harvested at 7th days of skeletal muscle differentiation, as previously described. Cells were collected after enzymatic digestion with trypsin (Merck), lysed by sonication and centrifuged at 800 xg for 10 minutes. Supernatant was used to determine total protein content with the BCA Protein Assay Kit (Pierce), according to the manufacturer's instructions. For” for “For”, “(0.4 M” for “(0.4M”
For COC(=O)CCC(=O)NNC(=O)c1cc2ccccc2cn1 [PLG11], the “increase of the nuclear localization of MyoD” value (shortened to “increase … of MyoD”) was 1.3 fold.
With COC(=O)CCC(=O)NNC(=O)c1cc2c(cn1)[nH]c1ccccc12 [PLG8] the “increase … of MyoD” value was 1.4 fold.
In the case of O=C(O)CCC(=O)NNC(=O)c1cc2ccccc2cn1 [PLG2], the “increase … of MyoD” value is reported as 1.2 fold.
